Laboratory results: PubChem BioAssay (NCI)
Where “and” joins values, the source holds several entries; their conditions need not be identical. Equal values may be shown once.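 Cells were grown in 96-well plates and exposed to each compound for 48 hours at five concentrations; endpoints were interpolated linearly between bracketing concentrations, or set to the highest concentration if not reached. Here, GI50 denotes the concentration required for 50% inhibition of growth. TGI: total growth inhibition.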

What was measured:
Test in all cases: NCI-60 cell line screen, 48 h
RPMI-8226 leukemia = system: RPMI-8226 leukemia
SK-MEL-28 melanoma = system: SK-MEL-28 melanoma
NCI-H23 lung = system: NCI-H23 lung
MDA-MB-231 breast = system: MDA-MB-231 breast
KM12 colon = system: KM12 colon
SR leukemia = system: SR leukemia
K-562 leukemia = system: K-562 leukemia
786-0 renal = system: 786-0 renal
OVCAR-4 ovarian = system: OVCAR-4 ovarian
NCI/ADR-RES ovarian = system: NCI/ADR-RES ovarian

Structure (SMILES) | GI50 (RPMI-8226 leukemia) | TGI (RPMI-8226 leukemia) | GI50 (SK-MEL-28 melanoma) | TGI (SK-MEL-28 melanoma) | GI50 (NCI-H23 lung) | TGI (NCI-H23 lung) | GI50 (MDA-MB-231 breast) | TGI (MDA-MB-231 breast) | GI50 (KM12 colon) | TGI (KM12 colon) | GI50 (SR leukemia) | TGI (SR leukemia) | GI50 (K-562 leukemia) | TGI (K-562 leukemia) [µM] | GI50 (786-0 renal) | TGI (786-0 renal) | GI50 (OVCAR-4 ovarian) | TGI (OVCAR-4 ovarian) | GI50 (NCI/ADR-RES ovarian) | TGI (NCI/ADR-RES ovarian)
COC(=O)c1ccc2c(C(=Nc3ccc(N(C)C(=O)CN4CCN(C)CC4)cc3)c3ccccc3)c(O)[nH]c2c1 | 2.73 µM and 5.97 µM | 9.86 µM and 20.8 µM | 1.77 µM and 1.96 µM | 3.35 µM and 3.5 µM | 5.23 µM and 6.98 µM | 28.4 µM and > 100 µM | 1.91 µM and 2.5 µM | 4.11 µM and 6.96 µM | 0.066 µM and 0.073 µM | 2.05 µM and 1.98 µM | 2.5 µM | > 44.7 µM | 0.224 µM and 0.466 µM | > 100 | 1.93 µM and 1.47 µM | 6.6 µM and 4.64 µM | 5.17 µM and 13.1 µM | 59.6 µM and > 70.8 µM | 14.4 µM and > 32.7 µM | > 100 µM
CN1CCN(c2ccc(Nc3ncc4cc5n(c4n3)C3(CCCCC3)CNC5=O)nc2)CC1 | 0.0624 µM | 4.04 µM | 3.01 µM | 26 µM | 2.19 µM | 15.7 µM | 1.34 µM | 10.5 µM | 1.32 µM | 21.9 µM | 0.307 µM | 3.28 µM | 2.17 µM | 18.4 | 1.53 µM | 17 µM | 2.86 µM | 15.4 µM | 5.77 µM | 26 µM
CCN1C(=O)N(CC)C2C1NN=c1s/c(=C\c3ccc(OC)cc3)c(=O)n12 (stereo not drawn) | 0.353 µM | > 100 µM | 0.953 µM | > 100 µM | 0.494 µM | > 100 µM | 0.353 µM | > 39 µM | 0.0716 µM | > 100 µM | 0.0444 µM |  | 0.053 µM | > 100 | 0.647 µM | > 100 µM | 0.614 µM | > 100 µM | 0.0744 µM | > 100 µM
Cc1cc2c(cc1Cl)SC(C(=O)c1ccc(Cl)c(Cl)c1)NS2(=O)=O (stereo not drawn) | 24.6 µM | 56 µM | 30.4 µM | 88.9 µM | 34.1 µM | 89.5 µM | 36.7 µM | > 100 µM | 30.9 µM | 80.9 µM | 31.4 µM | 81.8 µM | 35.6 µM | > 100 | 37.3 µM | 97 µM | 27.1 µM | 71.5 µM | 38.6 µM | > 100 µM
CCc1ccc([O-])c(C=NCCCN(C)CCCN=Cc2cc(C)ccc2[O-])c1.[Co+3].[N-]=[N+]=[N-] | 50 µg/mL and 73.5 µg/mL | 50 µg/mL and > 150 µg/mL | 50 µg/mL and 91.8 µg/mL | 50 µg/mL and > 150 µg/mL | 50 µg/mL and 33.8 µg/mL | 50 µg/mL and 129 µg/mL | 15.2 µg/mL | 38.5 µg/mL | 50 µg/mL and > 150 µg/mL | 50 µg/mL and > 150 µg/mL | 36.4 µg/mL | 50 µg/mL | 5 µg/mL and 74 µg/mL |  | 43.1 µg/mL | 50 µg/mL | 50 µg/mL and 90.8 µg/mL | 50 µg/mL and > 150 µg/mL | 50 µg/mL and 47.4 µg/mL | 50 µg/mL and 47.4 µg/mL
COc1ccc(-c2nc3sccn3c2-c2ccnc(NCCCNS(=O)(=O)c3ccc(F)cc3)n2)cc1 | 1.6 µM | 5.37 µM | 2.29 µM | 6.86 µM | 2.11 µM | 5.5 µM | 4.18 µM | > 100 µM | 2.57 µM | 9.24 µM | 3.17 µM | > 100 µM | 1.43 µM | > 100 | 5.13 µM | > 100 µM | 2.49 µM | 8.4 µM | 1.98 µM | 6.16 µM
CS(=O)(=O)N1CCc2c(-c3cnc(N)nc3)nc(N3CCOCC3)nc21 | 1.52 µM and 2.5 µM | > 100 µM | 0.646 µM and 0.695 µM | 8.18 µM and 13.1 µM | 1.94 µM and 1.37 µM | > 100 µM | 1.29 µM and 1.26 µM | > 10 µM and 23.4 µM | 2.1 µM and 2.25 µM | > 100 µM | 2.08 µM and 1.96 µM | > 100 µM | > 6.98 µM and 5.3 µM | > 100 | 0.696 µM and 0.562 µM | > 8.81 µM and 16.5 µM | 1.21 µM and 0.945 µM | > 25.7 µM | 2.16 µM and 1.63 µM | > 100 µM
O=c1c2cc(O)c(O)cc2oc2cc(O)c(C3OC(CO)C(O)C(O)C3O)c(O)c12 (stereo not drawn) |  | > 100 µM |  | > 100 µM |  | > 100 µM |  | > 100 µM |  | > 100 µM |  | > 100 µM |  | > 100 |  | > 100 µM |  | > 100 µM |  | > 100 µM
CCCc1n(Cc2ccc3ccccc3n2)cc[n+]1Cc1ccc2ccccc2n1 | 0.362 µM | 7.41 µM | 1.52 µM | 15.8 µM | 0.819 µM | 14.2 µM | 2.11 µM | 8.47 µM | 0.991 µM | 11.9 µM | 0.635 µM | 12.7 µM | 0.72 µM | 15.9 | 11.2 µM | 24.2 µM | 0.445 µM | 18.3 µM | > 100 µM | > 100 µM
CC[C@@]1(O)C(=O)NCc2c1cc1n(c2=O)Cc2cc3c(NC(C)=O)cccc3nc2-1 | > 30.3 µM | > 100 µM | > 100 µM | > 100 µM | > 100 µM | > 100 µM | > 100 µM | > 100 µM | > 100 µM | > 100 µM | > 100 µM | > 100 µM | > 100 µM | > 100 | > 100 µM | > 100 µM | > 100 µM | > 100 µM | > 100 µM | > 100 µM
CNc1ncc2cc(-c3cc(NC(=O)NCCC(C)(C)C)c(F)cc3C)c(C)nc2n1 | 0.907 µM and 0.685 µM | > 52.6 µM | < 0.01 µM and 0.0101 µM | 0.118 µM and 0.239 µM | 0.147 µM and 0.186 µM | > 42.1 µM | 0.0619 µM and 0.156 µM | 1.67 µM and 1.41 µM | 0.405 µM and 0.448 µM | > 100 µM | 0.811 µM and 3.13 µM | > 75.2 µM | 0.227 µM and 0.33 µM | > 100 | 0.811 µM and 0.81 µM | > 100 µM | 0.543 µM and 0.785 µM | > 100 µM | 1.5 µM and 1.35 µM | > 100 µM
N#Cc1c(N)c(C#N)c2c(c1-c1ccc(Cl)cc1)COc1ccc(F)cc1-2 | 19 µM | > 50 µM | > 50 µM | > 50 µM | 7.11 µM | 39.2 µM | 7.71 µM | 45.7 µM | 12.3 µM | > 50 µM | > 50 µM | > 50 µM | > 50 µM | > 50 | 20 µM | > 50 µM | > 50 µM | > 50 µM | 30.6 µM | > 50 µM
